From patent US20090325314A1, “N-Methyl Scanning Mutagenesis” (UNIVERSITY OF SOUTHERN CALIFORNIA, priority 2008, published 2009)
Where no end group is shown, it is not given here. [ ]: non-standard residue; d: D form. NMeK = CN[C@@H](CCCCN)C(=O)O

Tests used:
Gαi1 = molecular target: T1, Gαi1 (Homo sapiens, UniProt P63096); assay: R6A-1 competition/equilibrium binding; details: relative to unmodified peptide
T1 construct: made in house; host or cells: cell-free TnT reticulocyte lysate system (Promega), T7 promoter
Description: FIG. 2. Relative Peptide Affinities. (A) Radiolabeled Gαi1 was incubated with immobilized, biotinylated R6A and varying concentrations of either R6A (▾), unmodified peptide (▴), or N-Me-K (♦) for 3 hr. at 4° C. The radiolabel bound was normalized to that which bound in the absence of competitor. The plotted values represent the mean of three experimental values and the error bars correspond to the standard deviation. (B) Experimentally determined binding data is shown above. The error is calculated based on the standard error of the mean (SEM) for the log IC50 using GraphPad 5.0.
R6A-1 Competition/Equilibrium Binding: R6A (MSQTKRLDDQLYWWEYL) and Bio-R6A (Bio-MSQTKRLDDQLYWWEYL) were synthesized by previously described methods. This peptide was immobilized to NeutrAvidin beads (Promega) using the manufacturer's instructions. Gαi1 was expressed using the TnT reticulocyte lysate system (T7 promoter, Promega). (250 ng) plasmid DNA and (25 μCi) L-35S-Met (MP Biomedicals) were used in an (25 μL) expression. […] Specific Activity was measured by TCA precipitation.
400 pmol immobilized R6A, and (100,000 cpm) Gαi1 were suspended in (1 mL) HBS-EP buffer. Varying quantities of free peptide (R6A, Unmodified peptide, or N-Me-K) were added. […] After the final wash, the immobilized sample was transferred to scintillation vials and analyzed by scintillation counting. […]

Gαi1·GDP [1] = molecular target: T2, Gαi1·GDP (Homo sapiens, UniProt P63096); assay: TnT pulldown binding of N-methyl peptide library; parameters: made in house; host or cells: cell-free TnT coupled transcription/translation system (Promega); cDNA clone from UMR cDNA Resource Center; details: compared with unmodified peptide
Description: Binding affinity of N-methyl peptide library: TnT pulldown experiments were carried out as described in [10] with some modifications. Human cDNA clones encoding G proteins with the pcDNA3.1+ vector (Invitrogen) were obtained from the UMR cDNA Resource Center (www.cdna.org). The DNA clones for Gαi1, and HRas were translated into 35S-Met labeled proteins using a TnT coupled transcription/translation system (Promega). Translation reactions were desalted using G-25 spin columns (GE Healthcare) and the translation yield was calculated by TCA precipitation. Equal amounts of each labeled subunit were added to (5 μL) neutravidin-agarose containing (2 nmol) pre-bound biotin labeled peptide in (1 mL) HBS-EP buffer. Control neutravidin-agarose beads were loaded with (d)-biotin (Anaspec). Binding reactions proceeded for 2 hrs at 4° C. followed by filtration and washing with HBS-EP. The matrix was analyzed by scintillation counting and the percent bound was determined by the matrix counts divided by the total counts as determined by TCA precipitation. Values were normalized to the percent bound of unmodified peptide.

Gαi1·GDP [2] = molecular target: T2, Gαi1·GDP; details: binding to Gαi1·GDP; literature value; cited from earlier work

T2 sequence (P63096 whole entry): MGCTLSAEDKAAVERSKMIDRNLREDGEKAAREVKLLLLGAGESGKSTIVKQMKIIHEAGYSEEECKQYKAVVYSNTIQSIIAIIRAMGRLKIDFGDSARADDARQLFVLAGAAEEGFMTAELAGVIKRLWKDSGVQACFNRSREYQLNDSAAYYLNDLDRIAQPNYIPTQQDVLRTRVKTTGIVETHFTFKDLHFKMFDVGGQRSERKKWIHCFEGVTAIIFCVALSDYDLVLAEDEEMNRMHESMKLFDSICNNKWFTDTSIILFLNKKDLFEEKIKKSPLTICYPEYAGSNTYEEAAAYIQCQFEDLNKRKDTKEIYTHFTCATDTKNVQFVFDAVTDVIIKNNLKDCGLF
T1 sequence (P63096 whole entry): as above

| ΔΔG (Gαi1; equilibrium competition with R6A) | enhanced binding (fold) by equilibrium competition using the R6A peptide (Gαi1; immobilized R6A, radiolabeled Gαi1, 3 hr at 4° C.) | peptide binding affinity to Gαi1·GDP (qualitative) (Gαi1·GDP [1]) | Substance | Kd (Gαi1·GDP [2]) |
| --- | --- | --- | --- | --- |
| -0.50 kcal/mol | 2.5 fold | increased binding affinity | NNNNND[NMeK]LYWWEFL [N-Me-K] |  |
|  |  |  | MSQTKRLDDQLYWWEYL [Compound R6A] | 60 nM |
|  |  |  | DKLYWWEFL | 200 nM |
